Results: patent US11512089B2, “Substituted [1,2,4]triazolo[3,4-a]phthalazines as modulators of GABAA receptor activity” (SHANGHAI SIMR BIOTECHNOLOGY CO., LTD, priority 2018, dated 2022)
Values after ≈ are worked out from the molar mass of the structure shown.

Columns and labels:
[1] = Kinetic solubility in 50 mM phosphate buffer pH 7.4; format: physicochemical; conditions: aqueous buffer, kinetic from dmso stock, 50 mM phosphate buffer pH 7.4, 2% DMSO, room temperature
Procedure: (§1) 50 mM phosphate buffer pH=7.4: 0.39 g of NaH2PO4.2H2O, and 1.4025 g of Na2HPO4 were weighted and placed in an erlenmeyer flask, 240 mL of water was added. The solid was dissolved and mixed thoroughly, the pH value was adjusted to 7.4 with 10M NaOH solution, and the resulting solution was transferred to a 250 mL volumetric flask, followed by adding water to the mark.
(§2) Waters e2695 HPLC high performance liquid chromatography, Mettler XSE105 analytical balance.
(§3) Firstly, a 10 mM stock solution with DMSO as the solvent was prepared, and was diluted with a diluent (ACN: PB buffer 50:50) into 1 μM-200 μM as standard solution.
Kinetic solubility. 30 μL of the stock solution was placed in a 2 mL centrifuge tube, 1470 μL of 50 mM phosphate buffer (pH 7.4) (containing DMSO at a final concentration of 2%) was added. The mixture was shaken at room temperature (1000 rpm/min) for 24 hours, and then filtered. The filtrate was tested by high performance liquid chromatography (UV).

[2] = Thermodynamic solubility in 50 mM phosphate buffer pH 7.4; format: physicochemical; conditions: aqueous buffer, thermodynamic from solid, 50 mM phosphate buffer pH 7.4, room temperature
Procedure: as §1, §2, §3
Thermodynamic solubility. About 1 mg of the sample was weighted, 1.5 mL of 50 mM phosphate buffer (pH 7.4) was added thereto, and the mixture was shaken at room temperature for 24 hours to ensure that the solution reached a state of saturation. The solution was then filtered, and the filtrate was tested with high-performance liquid chromatography (UV).

α5-GABAA receptor = target: T1, α5-GABAA receptor (Homo sapiens, UniProt P18507+P31644); assay: Whole cell patch clamp, inverse agonism efficacy on GABA-induced current in HEK-293 cells expressing α5-GABAA receptor; format: cell-based; conditions: HEK293; compound 100 nM, GABA 0.05 μM; ratio to reference compound Example 7 in CN106854207A in the same batch
T1 construct: expressed in transfected cells; host or cells: HEK-293 (monoclonal, stably transfected)
Procedure: The inventors used electrophysiological methods to determine the inverse agonist efficacy of the substances to be tested. The detailed procedures are as follows:
(1) Different subunits of GABAA receptors were expressed in human embryonic kidney cells 293 (HEK293). The cells were cultured in a culture medium and used as a cell model for screening potential analgesics. The α, β and γ subunits are necessary to form complete functional GABAA receptors. In this example, the inventors have established the following cell model: (a) α5 subunit (protein sequence is GenBank accession number: NM_000810.3), (33 subunit (protein sequence is GenBank accession number: NM_000814.5) and γ2 subunit (protein sequence is GenBank accession number: NM_000816.3) were expressed in HEK-293 cell line at the same time, followed by screening the monoclonal cell line. This cell line contained α5-GABAA receptor and had complete GABAA receptor function.
(2) The monoclonal stably transfected HEK-293 cells expressing α5-GABAA receptor were cultured in 10 cm culture dishes. The cells were passaged after reaching 80-90% confluence. During passaging, the culture medium was removed and discarded, 3 mL of DPBS (phosphate buffered saline, Gibco™) was added to the dishes, the dishes were shaken slightly, and DPBS was removed and discarded. 1 mL of trypsin (TrypLE Express, Gibco™) was added and the cells were digested at 37° C. for 1-2 minutes. Then 3 mL of complete medium (DMEM+10% FBS (Gibco™)) was added and the cells at the bottom of the culture dishes were dispersed. The cell suspension were transferred to a 15 mL centrifugal tube (Corning™) and then centrifuged at 200 g for 3 minutes. The supernatant was discarded, 4 mL of complete medium was added, and the cells were resuspended by gently blowing. The cell suspension was diluted by 1:5 or 1:10 for subculturing. The cell suspension was diluted by 1:12 for electrophysiology experiment, and added to a 24 well plate (Corning™) with a glass slide pre-treated with poly-D-lysine placed thereon; the experiment was initiated after the cells were adhered to the slide. The cells for electrophysiology experiment were maintained in culture for no more than 48 hours before use.
(3) Compound concentration: for screening, all compounds were diluted to a final concentration of 100 nM and the concentration of GABA was 0.05 μM. The compounds were at the concentration of 0.3 nM, 3 nM, 10 nM, 30 nM, 100 nM and 300 nM in dose-inverse agonism efficacy (%) experiment. The whole cell patch clamp technique was used in electrophysiology experiments, which can refer to the literature (I. Lecker, Y. Yin, D. S. Wang and B. A. Orser, (2013) Potentiation of GABAA receptor activity by volatile anaesthetics is reduced by α5-GABAA receptor-preferring inverse agonists, British Journal of Anaesthesia 110 (S1): i73-i81). The extracellular solution (ECS) contained: 150 mM NaCl, 5 mM KCl, 2.5 mM CaCl2, 1 mM MgCl2, 10 mM HEPES and 10 mM glucose (pH 7.4); Patch electrodes were filled with an intracellular solution containing: 140 mM CsCl, 11 mM EGTA, 10 mM HEPES, 2 mM CaCl2, 1 mM MgCl2, 4 mM MgATP, 2 mM TEA (pH 7.3). The currents were recorded by an EPC-10 amplifier and the PatchMaster software (HEKA). Patch electrodes with a resistance of 4-6 MΩ were pulled from borosilicate glass. The ALA-VC3-8PP™ system was used for extracellular administration. Separate cells that grew independently was selected for recording. During recording, the membrane voltage was clamped at −60 mV. During experiment, the cells were firstly perfused with ECS for 20 seconds. When the baseline reached to a stable state, the cells were then perfused with GABA solution. Then the current induced by GABA could be detected. After about 20 to 40 seconds, the current was stable. ECS was switched to compounds solution and the effects of the compounds were detected. At last, the perfusion solution was switched to ECS. […]

α5-GABAA = target: T2, α5-GABAA (Homo sapiens, UniProt P31644); conditions: cited from earlier work
T2 sequence (P31644 32-462): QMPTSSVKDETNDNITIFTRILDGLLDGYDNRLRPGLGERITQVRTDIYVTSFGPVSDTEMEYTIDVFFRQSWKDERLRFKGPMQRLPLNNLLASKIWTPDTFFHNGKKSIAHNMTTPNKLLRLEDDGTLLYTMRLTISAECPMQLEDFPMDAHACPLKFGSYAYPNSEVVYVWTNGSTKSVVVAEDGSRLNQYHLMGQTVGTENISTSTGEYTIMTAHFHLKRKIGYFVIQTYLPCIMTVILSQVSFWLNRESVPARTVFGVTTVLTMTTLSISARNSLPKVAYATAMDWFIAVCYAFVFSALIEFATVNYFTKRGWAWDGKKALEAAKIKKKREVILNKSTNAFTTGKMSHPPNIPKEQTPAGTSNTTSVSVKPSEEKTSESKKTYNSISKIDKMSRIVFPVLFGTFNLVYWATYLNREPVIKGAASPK

[3] = Pharmacokinetic experiment on rats, oral; format: in vivo; conditions: rat; male SD rats, po 1 mg/kg, 50% PEG400/50% water, plasma
Procedure: In the pharmacokinetic experiment on rats, the maximum drug concentration (Cmax) in the blood was determined to evaluate the absorption of the compounds in rats. All rats fasted overnight before administration; the test compounds were dissolved and administered orally (po, intragastric administration) to male SD rats, with 3 rats in each group. After administration of the test compounds, blood was collected by jugular vein puncture at […] with 0.25 mL per sample. The plasma drug concentration was determined by LC-MS/MS method, and the pharmacokinetic parameters were calculated by Phoenix WinNonlin7.0. The dose was 1 mg/kg, and the menstruum was 50% PEG400/50% water.

T1 sequence (P28472 26-473 partner, one chain of several): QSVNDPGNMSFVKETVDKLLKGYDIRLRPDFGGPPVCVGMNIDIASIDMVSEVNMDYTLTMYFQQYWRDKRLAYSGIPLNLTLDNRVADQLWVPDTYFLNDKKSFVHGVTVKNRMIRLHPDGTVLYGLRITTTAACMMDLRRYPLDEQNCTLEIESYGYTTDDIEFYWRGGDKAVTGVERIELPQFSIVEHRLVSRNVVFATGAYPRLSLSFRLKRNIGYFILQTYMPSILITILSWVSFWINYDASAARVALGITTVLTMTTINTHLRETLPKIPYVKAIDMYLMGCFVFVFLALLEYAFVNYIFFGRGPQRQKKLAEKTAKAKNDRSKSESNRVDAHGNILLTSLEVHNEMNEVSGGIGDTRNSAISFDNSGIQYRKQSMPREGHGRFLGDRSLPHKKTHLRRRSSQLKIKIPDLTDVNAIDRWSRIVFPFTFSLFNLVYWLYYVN
T1 sequence (P18507 40-467 isoform P18507-1 limits assumed, one chain of several): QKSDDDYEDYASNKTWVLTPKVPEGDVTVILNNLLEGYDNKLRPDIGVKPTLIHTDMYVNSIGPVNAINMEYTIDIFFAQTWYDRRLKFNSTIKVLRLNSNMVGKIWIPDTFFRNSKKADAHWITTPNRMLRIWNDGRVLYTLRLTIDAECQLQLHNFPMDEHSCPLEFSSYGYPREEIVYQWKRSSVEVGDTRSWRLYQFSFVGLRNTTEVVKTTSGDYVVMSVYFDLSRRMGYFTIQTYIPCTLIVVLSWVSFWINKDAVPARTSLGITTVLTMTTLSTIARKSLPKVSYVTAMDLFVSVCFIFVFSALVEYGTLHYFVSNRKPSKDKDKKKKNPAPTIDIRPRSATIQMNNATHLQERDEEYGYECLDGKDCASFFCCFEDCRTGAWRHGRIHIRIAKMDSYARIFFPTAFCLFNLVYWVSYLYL

Row | SMILES | solubility kinetic at 24 h [1] [µg/mL] | solubility thermodynamic at 24 h [2] [µg/mL] | Emax at 0.1 µM (α5-GABAA receptor) [%] | inhibition efficacy of the highest dose on the current induced by GABA (α5-GABAA; GABA concentration 1 μM) [%] | inhibition on the current induced by GABA (α5-GABAA; GABA concentration higher than 1 μM) | Cmax [3] [ng/mL]
1 | CCNC(=O)c1ccc(COc2nn3c(-c4cc(COC)on4)nnc3c3ccccc23)nc1 [Compound 02, N-ethyl-6-[3-(5-methoxymethyl-isoxazol-3-yl)-[1,2,4]triazolo[3,4-a]phthalazin-6-yloxymethyl]-nicotinamide] | 8.02 (≈ 17.5 µM) | 3.39 (≈ 7.38 µM) | 78 |  |  | 
2 | COCc1cc(-c2nnc3c4ccccc4c(OCc4ccc(C(=O)NC(C)C)cn4)nn23)no1 [Compound 11, N-isopropyl-6-[3-(5-methoxymethyl-isoxazol-3-yl)-[1,2,4]triazolo[3,4-a]phthalazin-6-yloxymethyl]-nicotinamide] | 9.23 (≈ 19.5 µM) | 4.4 (≈ 9.29 µM) | 106 |  |  | 
3 | COCc1cc(-c2nnc3c4ccccc4c(OCc4ccc(C(=O)NC5CC5)cn4)nn23)no1 [Compound 12, N-cyclopropyl-6-[3-(5-methoxymethyl-isoxazol-3-yl)-[1,2,4]triazolo[3,4-a]phthalazin-6-yloxymethyl]-nicotinamide] | 10.9 (≈ 23.1 µM) | 9.05 (≈ 19.2 µM) | 94 |  |  | 
4 | COCc1cc(-c2nnc3c4ccccc4c(OCc4ccc(C(=O)N5CCC(F)(F)CC5)cn4)nn23)no1 [Compound 34] | 4.6 (≈ 8.59 µM) | 4.4 (≈ 8.22 µM) |  |  |  | 
5 | COCc1cc(-c2nnc3c4ccccc4c(OCc4ccc(C(=O)N(C)C)cn4)nn23)no1 [Compound 37] | 91.9 (≈ 200 µM) | 84.7 (≈ 184 µM) | 72.1 |  |  | 
6 | COCc1cc(-c2nnc3c4ccccc4c(OCc4ccc(C(=O)N5CCOCC5)cn4)nn23)no1 [Compound 38, {6-[3-(5-methoxymethyl-isoxazol-3-yl)-[1,2,4]triazolo[3,4-a]phthalazin-6-yloxymethyl]-pyridin-3-yl}-morpholin-4-methanone] | 17.8 (≈ 35.4 µM) | 8.7 (≈ 17.3 µM) | 93.4 |  |  | 
7 | COCc1cc(-c2nnc3c4ccccc4c(OCc4ccc(C(=O)N5CC(OC)C5)cn4)nn23)no1 [Compound 42] | 5.89 (≈ 11.7 µM) | 6.02 (≈ 12 µM) | 73.3 |  |  | 
8 | CCOC(=O)c1ncn2c1[C@@H]1CCCN1C(=O)c1cc(OC)ccc1-2 [L-655,708] |  |  |  | 15 | no inhibition | 
9 | CCNC(=O)c1ccc(COc2nn3c(-c4cc(C)on4)nnc3c3ccccc23)nc1 [drawing 164, reference compound] | 0.62 (≈ 1.44 µM) | < 0.5 |  |  |  | 
10 | Cc1cc(-c2nnc3c4ccccc4c(OCc4ccc(C(=O)N5CCOCC5)cn4)nn23)no1 [drawing 171, reference compound] | 1.95 (≈ 4.14 µM) | 1.7 (≈ 3.61 µM) |  |  |  | 
11 | CCNC(=O)c1ccc(COc2nn3c(-c4cc(COC)on4)nnc3c3ccccc23)nc1 [drawing 172] |  |  |  |  |  | 24.7
12 | CCNC(=O)c1ccc(COc2nn3c(-c4cc(C)on4)nnc3c3ccccc23)nc1 [drawing 173, reference compound] |  |  |  |  |  | 19
13 | COCc1cc(-c2nnc3c4ccccc4c(OCc4ccc(C(=O)N5CCOCC5)cn4)nn23)no1 [drawing 174] |  |  |  |  |  | 48
14 | Cc1cc(-c2nnc3c4ccccc4c(OCc4ccc(C(=O)N5CCOCC5)cn4)nn23)no1 [drawing 175, reference compound] |  |  |  |  |  | 22.4
15 | COCCNC(=O)c1ccc(COc2nn3c(-c4cc(C)on4)nnc3c3ccccc23)nc1 [reference compound] | 0.92 (≈ 2 µM) | 1.5 (≈ 3.26 µM) |  |  |  | 
16 | Cc1cc(-c2nnc3c4ccccc4c(OCc4ccc(C(=O)NC(C)C)cn4)nn23)no1 [reference compound] | 2.2 (≈ 4.96 µM) | 1.8 (≈ 4.06 µM) |  |  |  | 
17 | Cc1cc(-c2nnc3c4ccccc4c(OCc4ccc(C(=O)NC5CC5)cn4)nn23)no1 [reference compound] | 2.16 (≈ 4.89 µM) | 0.82 (≈ 1.86 µM) |  |  |  | 
18 | Cc1cc(-c2nnc3c4ccccc4c(OCc4ccc(C(=O)NCC(F)F)cn4)nn23)no1 [reference compound] | < 0.46 | < 0.46 |  |  |  | 
19 | Cc1cc(-c2nnc3c4ccccc4c(OCc4ccc(C(=O)N5CCC(F)(F)CC5)cn4)nn23)no1 [reference compound] | 0.97 (≈ 1.92 µM) | 0.98 (≈ 1.94 µM) |  |  |  | 
